Measured values taken from publication PMC9629815, “MK256 is a novel CDK8 inhibitor with potent antitumor activity in AML through downregulation of the STAT pathway” (Oncotarget, 2022).

Columns and labels:
[1] = test system: SET-2; experiment: Cell proliferation assay (CellTiter-Glo, 7-day); assay type: cell-based; conditions: Homo sapiens, SET-2, 168 h
[2] = test system: MCL-1 mRNA in KG-1 cells; experiment: Real-time RT-PCR of MCL-1 mRNA; assay type: cell-based
Description: (§1) Total RNA from the various cell lines was isolated using the RNeasy extraction method (Qiagen, Valencia, CA, USA). First-strand cDNA was synthesized from total RNA by iScript cDNA synthesis (Bio-Rad, Hercules, CA, USA) according to the manufacturer’s instructions. Taqman RT–PCR analysis was performed on cDNA in a 384-well plate, using a Prism 7900HT Real-Time PCR System (Applied Biosystems, Foster City, CA, USA). Primers and Taqman probes were purchased from Applied Biosystems. The expression of target genes MCL1 (Hs03043899_m1, Thermo fisher) and CCL2 (Hs00234140_m1, Thermo fisher) in each sample was assayed in triplicate and normalized to human GUSB for mRNA expression analysis. An unpaired t test was used to calculate statistical significance.

[3] = test system: MCL-1 mRNA in MOLM-14 cells; experiment: Real-time RT-PCR of MCL-1 mRNA; assay type: cell-based
Description: as §1

[4] = biological target: CYP1A2 (Homo sapiens, UniProt P05177); experiment: Cytochrome P450 inhibition assay; assay type: in vitro ADME; conditions: 50 uM
Sequence of CYP1A2 (P05177 whole entry): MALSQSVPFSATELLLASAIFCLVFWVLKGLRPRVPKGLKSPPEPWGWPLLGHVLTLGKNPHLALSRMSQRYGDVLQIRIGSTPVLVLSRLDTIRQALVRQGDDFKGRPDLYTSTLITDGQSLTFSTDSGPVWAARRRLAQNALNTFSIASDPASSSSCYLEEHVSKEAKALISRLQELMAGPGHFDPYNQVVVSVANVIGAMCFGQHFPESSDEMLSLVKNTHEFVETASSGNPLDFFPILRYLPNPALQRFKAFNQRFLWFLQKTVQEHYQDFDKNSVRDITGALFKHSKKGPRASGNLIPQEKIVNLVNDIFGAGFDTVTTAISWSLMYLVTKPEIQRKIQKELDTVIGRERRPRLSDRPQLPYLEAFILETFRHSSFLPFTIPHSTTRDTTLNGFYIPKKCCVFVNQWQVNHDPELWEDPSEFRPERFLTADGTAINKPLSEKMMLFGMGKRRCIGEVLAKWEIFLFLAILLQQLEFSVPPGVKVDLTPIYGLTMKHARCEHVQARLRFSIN

[5] = biological target: CYP2C19 (Homo sapiens, UniProt P33261); experiment: Cytochrome P450 inhibition assay; assay type: in vitro ADME; conditions: 50 uM
Sequence of CYP2C19 (P33261 whole entry): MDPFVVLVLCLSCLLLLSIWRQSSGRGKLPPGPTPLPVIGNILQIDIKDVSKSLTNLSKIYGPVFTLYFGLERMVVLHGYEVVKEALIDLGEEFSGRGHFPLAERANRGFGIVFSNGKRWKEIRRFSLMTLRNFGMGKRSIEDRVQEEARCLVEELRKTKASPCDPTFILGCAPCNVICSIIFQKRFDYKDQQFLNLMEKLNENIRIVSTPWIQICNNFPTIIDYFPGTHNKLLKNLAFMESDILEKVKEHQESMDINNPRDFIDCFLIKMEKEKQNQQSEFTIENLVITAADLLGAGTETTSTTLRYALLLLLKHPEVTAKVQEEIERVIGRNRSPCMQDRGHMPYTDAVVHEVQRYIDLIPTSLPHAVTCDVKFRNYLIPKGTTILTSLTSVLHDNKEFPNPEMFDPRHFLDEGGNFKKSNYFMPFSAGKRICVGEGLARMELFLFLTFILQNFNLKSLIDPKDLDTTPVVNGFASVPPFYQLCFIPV

[6] = biological target: CYP3A4-MDZ (Homo sapiens, UniProt P08684); experiment: Cytochrome P450 inhibition assay; assay type: in vitro ADME; conditions: 50 uM
Sequence of CYP3A4-MDZ (P08684 whole entry): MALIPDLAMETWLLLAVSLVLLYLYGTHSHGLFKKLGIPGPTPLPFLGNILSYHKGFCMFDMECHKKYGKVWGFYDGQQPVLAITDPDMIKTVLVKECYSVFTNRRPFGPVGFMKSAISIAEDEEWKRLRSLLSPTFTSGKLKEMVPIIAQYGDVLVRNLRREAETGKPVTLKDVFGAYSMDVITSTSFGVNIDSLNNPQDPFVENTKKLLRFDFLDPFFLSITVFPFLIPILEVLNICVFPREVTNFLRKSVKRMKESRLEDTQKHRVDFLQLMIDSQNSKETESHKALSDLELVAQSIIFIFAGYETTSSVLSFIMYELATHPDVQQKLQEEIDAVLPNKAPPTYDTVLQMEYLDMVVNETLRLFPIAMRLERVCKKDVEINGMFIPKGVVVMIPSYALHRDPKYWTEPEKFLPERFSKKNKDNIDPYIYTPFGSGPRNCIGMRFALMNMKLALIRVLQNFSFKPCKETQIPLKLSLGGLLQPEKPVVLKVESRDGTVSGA

[7] = test system: p-STAT1 (S727), p-STAT3(S727), p-STAT5(S726) in MOLM-14 xenograft tumors; experiment: Pharmacodynamics study in MOLM-14 xenograft model (western blot of tumors); assay type: in vivo, mice; conditions: 10, 50 and 100 mg/kg oral, 6 hrs; with higher doses
Description: For the in vivo western blot study, to assess gene expression in vivo, tumors were induced in female NOD SCID mice by s.c. inoculation of 5 × 10^6 AML cells suspended in matrigel. Mice bearing tumors of at least 100 mm^3 were treated with MK256. Mice were sacrificed after 6 hrs and tumors were harvested. The tumors were homogenized and lysed in T-per Mammalian Protein Extraction Reagent (78510, Thermo Fisher Scientific) containing protease and phosphatase inhibitors (88669, Thermo Fisher Scientific). Total protein concentration was measured using the Pierce BCA protein Assay Kit (23227, Thermo Fisher Scientific). Proteins were separated on SDS-PAGE and transferred to Nitrocellulose membrane. Immunoblotting was performed using specific antibodies. The following specific antibodies were used: Cell signaling technology: pSTAT1(S727) #8826, pSTAT1(Y701) #9167, STAT1 #14994, pSTAT3 (S727) #9134, pSTAT3(Y705) #9145, STAT3 #9139, pSTAT5(Y694) #4322, STAT5 #25656, b-ACTIN #3700, GAPDH #5174, BCL2 #4223, MCL-1 #94296, Cleaved PARP #9541, Cleaved Caspase3 #9661, IL6ST #12859, SmyD3 #3732, PD-L1 #13684. Invitrogen: IL6R PA5109855. Abcam: pSTAT5(S726) ab128896.

[8] = test system: MOLM-14 xenograft model; experiment: MOLM-14 xenograft efficacy study, single agent; assay type: in vivo, NOD SCID mice; conditions: 50 mg/kg twice a day
Description: These favorable properties led us to evaluate the efficacy of MK256 in vivo using the MOLM-14 cell line to examine if the compound could inhibit tumor growth in the MOLM-14 xenograft model. Mice were given 100 ul of 50 mg/kg of MK256 or 100 ul of saline twice a day for 21 days following a 5-day on/ 2-day off schedule. Tumors from two groups of mice were all initially ~ 300 mm^3. Tumors of the mice in the control group continued to grow quickly during the 21-day period, with the average tumor volume reaching 1600 mm^3 on day 22, when we measured tumors for the last time. In the contrast, tumors of the mice in the treatment group shrank to 200 mm^3 on average by day 22 (Figure 9A). Average tumor weight was 0.16 g for the treatment group and 1.85 g for the control group (Figure 9B). […] Tumors collected on day 22 were then processed and analyzed with western blot.
Female NOD SCID mice were purchased from Charles River Laboratories (Wilmington, USA) or bred at the animal facilities of the University of California San Francisco. All animal experiments were carried out under protocols approved by the Institutional Animal Care and Use Committee of the University of California San Francisco. For MOLM-14 model, 200 ul of 1 × 10^6 cells combined with matrigel (v/v, 1:1) were injected subcutaneously in the right flank of NODSCID mice. Tumors were allowed to grow for two weeks to reach a tumor volume about 200 mm^3 before mice were randomly grouped. The animals were treated for three weeks on a 5 days on/2 days off schedule by oral gavage with MK256 (dissolved in saline) alone or in combination with Venetoclax (dissolved in 5% DMSO + 50% PEG 300 + 5% Tween 80 + ddH2O). In the single treatment study, MK256 was administered by mice twice a day at 50 mg/kg. In the combination study, MK256 (10 or 50 mg/kg) and was coadministered with Venetoclax (25 mg/kg) once a day. Tumor volume and body weight were monitored once every 3 days. Tumor volume was calculated as L × W^2/2, where L and W were the length and width of the tumor, respectively.

## Nc1nccc2c(Br)cc3cc(C(=O)O)ccc3c12 [MK256]
[1]
  IC50: 212 nM
[2]; 300 nM
  mRNA level decreased to: 25%
[2]; 1 uM
  mRNA level decreased to: 30%
[3]; 300 nM
  MCL-1 mRNA level: barely changed
[3]; 1 uM
  MCL-1 mRNA level downregulated by: ~ 30%
[4]
  cytochrome P450 inhibition: no inhibition
[5]
  cytochrome P450 inhibition: no inhibition
[6]
  cytochrome P450 inhibition: no inhibition
[7]
  expression levels of p-STAT1 (S727), p-STAT3(S727), p-STAT5(S726) in tumors: further downregulated
[8]
  expression level of p-STAT1(S727) and p-STAT5(S726) in tumors collected on day 22: down regulate
[8]; 5-day on/2-day off, 21 days, start ~300 mm^3, control 1600 mm^3
  average tumor volume on day 22: 200 mm^3
[8]; day 22, control 1.85 g
  average tumor weight: 0.16 g
[8]; from 23.5 g at start, control 23.4 g to 25.7 g
  average body weight at end of study: 23.9 g
